Literature values, collected in patent US5478810A, “Peptide amides, processes for the preparation thereof and agents containing these as fibrin/thrombin clotting inhibitors” (Behringwerke Aktiengesellschaft, priority 1990, dated 1995).
No end group written: not given here. *: point of attachment. 4‑hydroxypiperidide = C-terminal 4-hydroxypiperidide, OC1CCN(*)CC1; 3‑methylpiperidide = C-terminal 3-methylpiperidide

System: plasma clotting
Details: relative to GPRP = 1

Q: Which “relative activity (amount of plasma which is inhibited with a defined amount of inhibitor)” value does the source give for “GPRP 3-methylpiperidide (GPRP-{3‑methylpiperidide}) [known peptide derivative presented at the XIth American Symposium on Peptides]” here?
A: Its value is 1.29.

Q: With “GPRP 4-hydroxypiperidide (GPRP-{4‑hydroxypiperidide}) [known peptide derivative presented at the XIth American Symposium on Peptides]” as the substance, how does the “relative activity (amount of plasma which is inhibited with a defined amount of inhibitor)” value read?
A: The value was 1.2.

Q: For GPRP-NH2, which “relative activity (amount of plasma which is inhibited with a defined amount of inhibitor)” value is on record?
A: The value was 3.52.
